Experimental findings from ChEMBL document CHEMBL1275376, “Development, validation, and use of quantitative structure-activity relationship models of 5-hydroxytryptamine (2B) receptor ligands to identify novel receptor binders and putative valvulopathic compounds among common drugs” (J Med Chem, 2010) are described below.

One test deals with T1, 5-hydroxytryptamine receptor 2B (Homo sapiens, UniProt P41595). Put plainly: Displacement of [3H]LSD from human cloned 5HT2B receptor expressed in CHO cells by liquid scintillation counting. In kind it is cell-based. In general terms: In a radioligand displacement assay an active substance lowers the binding of a labelled ligand.
T1 sequence (P41595 whole entry): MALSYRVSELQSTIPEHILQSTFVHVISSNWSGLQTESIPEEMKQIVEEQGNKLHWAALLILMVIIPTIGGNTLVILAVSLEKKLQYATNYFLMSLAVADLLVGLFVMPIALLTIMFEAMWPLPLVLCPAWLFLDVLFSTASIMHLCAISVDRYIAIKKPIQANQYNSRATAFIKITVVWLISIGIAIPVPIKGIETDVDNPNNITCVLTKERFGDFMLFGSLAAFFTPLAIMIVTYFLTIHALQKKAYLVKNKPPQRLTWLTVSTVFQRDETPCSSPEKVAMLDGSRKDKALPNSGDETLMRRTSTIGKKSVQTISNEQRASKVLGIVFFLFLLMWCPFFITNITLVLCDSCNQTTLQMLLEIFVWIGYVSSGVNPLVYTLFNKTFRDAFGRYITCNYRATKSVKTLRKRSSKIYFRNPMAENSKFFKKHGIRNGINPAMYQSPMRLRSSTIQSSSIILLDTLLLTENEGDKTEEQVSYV
In the case of `COc1ccc2[nH]cc(CN)c2c1`, the Ki (commonly the dissociation constant of the complex between target and ligand, obtained from inhibition or displacement) was determined as 1.62 µM. With `Cn1ccc2cc3c(cc21)CCN3C(=O)Nc1cccnc1`, affinity was put at a Ki of 0.0043 µM. As to `COc1cc2c(CCNC(C)=O)c[nH]c2cc1F`, the Ki came to 2.5 µM. The same measure, in the same setting: then `Fc1ccc(N2CCN(CCC3OCCc4ccccc43)CC2)cc1` (centres undefined), with 0.0696 µM; and `COc1ccc2[nH]c3c(c2c1)CCNC3C` (centres undefined) [ADRENOGLOMERULOTROPIN], with 0.491 µM; and `CC(NCCC(c1ccccc1)c1ccccc1)c1ccccc1` (centres undefined) [FENDILINE], with 3.22 µM. The same measure, in the same setting: then `NC(=O)N1c2ccccc2CC(O)c2ccccc21` (centres undefined) [LICARBAZEPINE], with greater than 10 µM; and `CC[C@@H](CO)NC(=O)[C@@H]1C=C2c3cccc4[nH]cc(c34)C[C@H]2N(C)C1` [METHYLERGONOVINE], with 0.0008 µM.

The next test concerns the target T1, 5-hydroxytryptamine receptor 2B. In words: Agonist at human 5HT2B receptor expressed in HEK293 cells assessed as induction of calcium influx by FLIPR assay. Type of test: functional, cell-based.
As for `CC[C@@H](CO)NC(=O)[C@@H]1C=C2c3cccc4[nH]cc(c34)C[C@H]2N(C)C1` [METHYLERGONOVINE], the EC50 (as a rule, the concentration that produces a half-maximal response) was 0.0214 µM.
